The target of test [1] is T1, human orexin-2 receptor (Homo sapiens, UniProt O43614).
T1 construct: expressed in transfected cells; host or cells: CHO cells (grown under G418 selection)
T1 sequence (O43614 1-444): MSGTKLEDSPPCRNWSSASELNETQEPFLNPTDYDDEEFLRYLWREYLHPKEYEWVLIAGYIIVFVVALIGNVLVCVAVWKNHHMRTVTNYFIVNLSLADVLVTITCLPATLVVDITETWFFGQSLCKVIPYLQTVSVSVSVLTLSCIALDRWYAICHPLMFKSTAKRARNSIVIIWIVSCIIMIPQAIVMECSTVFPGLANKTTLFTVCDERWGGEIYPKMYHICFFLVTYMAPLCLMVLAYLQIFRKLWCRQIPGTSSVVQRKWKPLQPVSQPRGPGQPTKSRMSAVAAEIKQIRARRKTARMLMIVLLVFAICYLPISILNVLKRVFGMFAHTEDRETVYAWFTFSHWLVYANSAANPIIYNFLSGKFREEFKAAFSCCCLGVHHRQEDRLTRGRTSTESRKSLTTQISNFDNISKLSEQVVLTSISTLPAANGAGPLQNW
Briefly: FLIPR Ca2+ flux assay, OX2R. The class given is cell-based. To be noted: for Fold Selective: OX2R over OX1R, from FLIPR values. Here is the method: (§1) For intracellular calcium measurements, Chinese hamster ovary (CHO) cells expressing the rat orexin-1 receptor or the human orexin-2 receptor, are grown in Iscove's modified DMEM containing 2 mM L-glutamine, […], 1% hypoxanthine-thymidine supplement, 100 U/ml penicillin, 100 μg/ml streptomycin and 10% heat-inactivated fetal calf serum (FCS). The cells are seeded at 20,000 cells/well into Becton-Dickinson black 384-well clear bottom sterile plates coated with poly-D-lysine. All reagents were from GIBCO-Invitrogen Corp. The seeded plates are incubated overnight at 37° C. and 5% CO2. Ala-6,12 human orexin-A as the agonist is prepared as a 1 mM stock solution in 1% bovine serum albumin (BSA) and diluted in assay buffer (HBSS containing 20 mM HEPES, 0.1% BSA and 2.5 mM probenecid, pH7.4) for use in the assay at a final concentration of 70 pM. Test compounds are prepared as 10 mM stock solution in DMSO, then diluted in 384-well plates, first in DMSO, then assay buffer. On the day of the assay, cells are washed 3 times with 100 μl assay buffer and then incubated for 60 min (37° C., 5% CO2) in 60 μl assay buffer containing 1 μM Fluo-4AM ester, 0.02% pluronic acid, and 1% BSA, The dye loading solution is then aspirated and cells are washed 3 times with 100 μl assay buffer, 30 μl of that same buffer is left in each well. Within the Fluorescent Imaging Plate Reader (FLIPR, Molecular Devices), test compounds are added to the plate in a volume of 25 μl, incubated for 5 min and finally 25 μl of agonist is added. Fluorescence is measured for each well at 1 second intervals for 5 minutes and the height of each fluorescence peak is compared to the height of the fluorescence peak induced by 70 pM Ala-6,12 orexin-A with buffer in place of antagonist. […] The intrinsic orexin receptor antagonist activity of a compound which may be used in the present invention may be determined by these assays.
On the technique in general: Calcium flux is commonly read through the fluorescence of an indicator in the cells.

The target of test [2] is T2, rat orexin-1 receptor (Rattus norvegicus, UniProt P56718).
T2 construct: expressed in transfected cells; host or cells: CHO cells (grown under G418 selection)
T2 sequence (P56718 1-416): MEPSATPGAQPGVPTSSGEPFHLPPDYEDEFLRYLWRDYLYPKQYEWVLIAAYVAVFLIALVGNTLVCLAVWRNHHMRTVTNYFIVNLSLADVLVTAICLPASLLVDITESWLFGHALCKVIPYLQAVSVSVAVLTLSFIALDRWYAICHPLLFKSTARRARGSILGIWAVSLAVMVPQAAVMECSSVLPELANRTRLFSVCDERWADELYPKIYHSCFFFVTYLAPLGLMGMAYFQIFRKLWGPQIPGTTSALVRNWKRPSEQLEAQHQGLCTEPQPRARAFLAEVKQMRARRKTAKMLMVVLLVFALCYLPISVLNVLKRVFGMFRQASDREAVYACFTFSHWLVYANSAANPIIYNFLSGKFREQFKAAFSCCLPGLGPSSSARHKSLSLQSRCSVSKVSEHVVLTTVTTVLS
Briefly: FLIPR Ca2+ flux assay, OX1R. The class given is cell-based. The conditions noted are these: CHO cells expressing rat orexin-1 receptor; agonist 70 pM Ala-6,12 orexin-A. Here is the method:
as §1

Where [3] appears, read: CHO cells expressing human orexin-2 receptor, agonist 70 pM Ala-6,12 orexin-A, read-out: OX2R FLIPR.

The results in this text go back to US10000499B2, “Methyl diazepane orexin receptor antagonists” (MERCK SHARP & DOHME CORP., priority 2014, dated 2018).

Where two headings read alike, the source gives them in different places.

In the case of `Cc1ccnc(N2CC[C@@H](C)N(C(=O)c3ccccc3-n3nccn3)CC2)c1` [Example 1, (R)-(2-(2H-1,2,3-triazol-2-yl)phenyl)(7-methyl-4-(4-methylpyridin-2-yl)-1,4-diazepan-1-yl)methanone], the IC50 is 147 nM in test [1] and above 10000 nM in test [2]. The “Fold Selective” value in test [1] is 68.
Take `COc1ccnc(N2CC[C@@H](C)N(C(=O)c3ccccc3-n3nccn3)CC2)c1` [Example 2, (R)-(2-(2H-1,2,3-triazol-2-yl)phenyl)(4-(4-methoxypyridin-2-yl)-7-methyl-1,4-diazepan-1-yl)methanone]: the IC50 in test [1] (setting [3]) was found to be 45 nM; in test [2] it was 2590 nM. The “Fold Selective” value in test [1] is 57.
On the same counts, the results for `COc1ccnc(N2CC[C@@H](C)N(C(=O)c3ccsc3-n3nccn3)CC2)c1` [Example 3, (R)-(2-(2H-1,2,3-triazol-2-yl)thiophen-3-yl)(4-(4-methoxypyridin-2-yl)-7-methyl-1,4-diazepan-1-yl)methanone] are 122 nM, above 10000 nM and 82.
As for `COc1ccnc(N2CC[C@@H](C)N(C(=O)c3ccccc3C3(C#N)CC3)CC2)c1` [Example 4, 1-(2-{[(7R)-4-(4-methoxypyridin-2-yl)-7-methyl-1,4-diazepan-1-yl]carbonyl}phenyl)cyclopropane-carbonitrile], the IC50 in test [1] (setting [3]) is 163 nM; in test [2] it was above 10000 nM. The “Fold Selective” value in test [1] was determined as 61.
With `COc1ccnc(N2CC[C@@H](C)N(C(=O)c3cccnc3-n3cccn3)CC2)c1` [Example 5, (5R)-1-(4-methoxypyridin-2-yl)-5-methyl-4-{[2-(1H-pyrazol-1-yl)pyridin-3-yl]carbonyl}-1,4-diazepane], the values for the IC50 in test [1] (setting [3]) and in test [2] were 103 nM and above 10000 nM, respectively. Besides, in test [1], the “Fold Selective” value is reported as 97.
On the same counts, the results for `COc1ccnc(N2CC[C@@H](C)N(C(=O)c3cccnc3OCC(F)F)CC2)c1` [Example 6, (5R)-4-{[2-(2,2-difluoroethoxy)pyridin-3-yl]carbonyl}-1-(4-methoxypyridin-2-yl)-5-methyl-1,4-diazepane] are 183 nM, above 10000 nM and 54.
For `COc1ccnc(N2CC[C@@H](C)N(C(=O)c3cccnc3OCC(F)(F)F)CC2)c1` [Example 7, (5R)-1-(4-methoxypyridin-2-yl)-5-methyl-4-{[2-(2,2,2-trifluoroethoxy)pyridin-3-yl]carbonyl}-1,4-diazepane], the IC50 in test [1] (setting [3]) is 92 nM; in test [2], above 10000 nM. The “Fold Selective” value in test [1] is recorded as 108.
For `COc1ccnc(N2CC[C@@H](C)N(C(=O)c3ccccc3C3CCC3)CC2)c1` [Example 8, (5R)-4-[(2-cyclobutylphenyl)carbonyl]-1-(4-methoxypyridin-2-yl)-5-methyl-1,4-diazepane], in that order: 123 nM, above 10000 nM and 81.
For `COc1ccnc(N2CC[C@@H](C)N(C(=O)c3ccccc3C3CC3)CC2)c1` [Example 9, (5R)-4-[(2-cyclopropylphenyl)carbonyl]-1-(4-methoxypyridin-2-yl)-5-methyl-1,4-diazepane], in that order: 125 nM, above 10000 nM and 80.
As to `CCC(=O)N(C)c1cccc(N2CC[C@@H](C)N(C(=O)c3ccccc3-n3nccn3)CC2)n1` [Example 10, (R)-N-(6-(4-(2-(2H-1,2,3-triazol-2-yl)benzoyl)-5-methyl-1,4-diazepan-1-yl)pyridin-2-yl)-N-methylpropionamide], the IC50 in test [2] is above 10000 nM.
Turning to `C[C@@H]1CCN(c2cccc(N3CCN(C)C3=O)n2)CCN1C(=O)c1ccccc1-n1nccn1` [Example 11, 1-methyl-3-{6-[(5R)-5-methyl-4-{[2-(2H-1,2,3-triazol-2-yl)phenyl]carbonyl}-1,4-diazepan-1-yl]pyridin-2-yl}imidazolidin-2-one], the IC50 was 104 nM in test [1] (setting [3]) and 4760 nM in test [2]. Further, in test [1], the “Fold Selective” value was 46.
As for `CC(=O)N(C)c1cccc(N2CC[C@@H](C)N(C(=O)c3ccccc3-n3nccn3)CC2)n1` [Example 12, N-methyl-N-{6-[(5R)-5-methyl-4-{[2-(2H-1,2,3-triazol-2-yl)phenyl]carbonyl}-1,4-diazepan-1-yl]pyridin-2-yl}acetamide], the figures for the IC50 in test [1] (setting [3]) and in test [2] were 85 nM and above 10000 nM, respectively. In addition, the “Fold Selective” value in test [1] turned out to be 117.
For `CCN(C(C)=O)c1cccc(N2CC[C@@H](C)N(C(=O)c3ccccc3-n3nccn3)CC2)n1` [Example 13, N-ethyl-N-{6-[(5R)-5-methyl-4-{[2-(2H-1,2,3-triazol-2-yl)phenyl]carbonyl}-1,4-diazepan-1-yl]pyridin-2-yl}acetamide], in that order: 67 nM, above 10000 nM and 149.
For `C[C@@H]1CCN(c2cccc(N3CCN(C)C3=O)n2)CCN1C(=O)c1cccc(F)c1-n1nccn1` [Example 14, 1-{6-[(5R)-4-{[3-fluoro-2-(2H-1,2,3-triazol-2-yl)phenyl]carbonyl}-5-methyl-1,4-diazepan-1-yl]pyridin-2-yl}-3-methylimidazolidin-2-one], in that order: 58 nM, 3180 nM and 55.
Take `C[C@@H]1CCN(c2cccc(N3CCN(C)C3=O)n2)CCN1C(=O)c1cc(F)ccc1-n1nccn1` [Example 16, 1-{6-[(5R)-4-{[5-fluoro-2-(2H-1,2,3-triazol-2-yl)phenyl]carbonyl}-5-methyl-1,4-diazepan-1-yl]pyridin-2-yl}-3-methylimidazolidin-2-one]: the IC50 was 197 nM in test [1] (setting [3]) and above 10000 nM in test [2]. Further, the “Fold Selective” value in test [1] came out at 50.
For the molecule `CC(C)C(=O)N(C)c1cccc(N2CC[C@@H](C)N(C(=O)c3ccccc3-n3nccn3)CC2)n1` [Example 17, N,2-dimethyl-N-{6-[(5R)-5-methyl-4-{[2-(2H-1,2,3-triazol-2-yl)phenyl]carbonyl}-1,4-diazepan-1-yl]pyridin-2-yl}propanamide], the IC50 in test [1] (setting [3]) was 48 nM; in test [2], above 10000 nM. Moreover, the “Fold Selective” value in test [1] turned out to be 208.
Turning to `C[C@@H]1CCN(c2cccc(N(C)C(=O)C3CC3)n2)CCN1C(=O)c1ccccc1-n1nccn1` [Example 18, N-methyl-N-{6-[(5R)-5-methyl-4-{[2-(2H-1,2,3-triazol-2-yl)phenyl]carbonyl}-1,4-diazepan-1-yl]pyridin-2-yl}cyclopropanecarboxamide], the IC50 amounted to 71 nM in test [1] (setting [3]) and 9130 nM in test [2]. The “Fold Selective” value in test [1] turned out to be 128.
For `CC(O)c1cccc(N2CC[C@@H](C)N(C(=O)c3ccccc3-n3nccn3)CC2)n1` (stereo partly drawn) [Example 19, (2-(2H-1,2,3-triazol-2-yl)phenyl)((7R)-4-(6-(1-hydroxyethyl)pyridin-2-yl)-7-methyl-1,4-diazepan-1-yl)methanone], in that order: 20 nM, 2550 nM and 127.
For the molecule `Cc1ccc(-n2nccn2)c(C(=O)N2CCCN(c3nc4ccccc4o3)CC2)c1` [Example B-3, reference compound], in test [1] (comparison with diazepane compounds of U.S. Pat. No. 8,685,961), the “selectivity between orexin-2 receptor and orexin-1 receptor (in words)” value is on record as “greater selectivity for the orexin-1 receptor than for the orexin-2 receptor”.
